Data reported in patent US20250120978A1, “JAK INHIBITOR WITH ERK1/2 AND/OR SHP2 INHIBITORS COMBINATION THERAPY” (Erasca, Inc., priority 2021, published 2025).

Experiments:
[1] = system: JAK2V617F knock-in mouse models; assay: Splenomegaly in Jak2V617F knock-in mouse model of MPN; format: in vivo; conditions: Compound 2 30 mg/kg/per day, compared with vehicle treatment
Protocol: In animal models, JAK2V617F expression typically leads to the development of MPN-like disease which results in enlargement of spleen (splenomegaly), higher cell counts, and fibrotic evolution. JAK2V617F knock-in mouse models were used to investigate the effect of the combination of Compound 2 with ruxolitinib. Animals were dosed with either Compound 2, ruxolitinib, or the combination of Compound 2 with ruxolitinib. […] Data are shown in bar graphs as mean±SEM (n=4 for vehicle; n=7 for Compound 2 I; n=4 for ruxolitinib; n=7 for combo drug treatment) in FIG. 6B. (*p<0.05; **p<0.005).

[2] = system: Human JAK2V617F-positive UKE-1 cells; assay: Apoptosis by Annexin V staining and flow cytometry in UKE-1 cells; format: cell-based; conditions: 72 hours, Annexin V staining; single drug
Protocol: The following experiment was designed to test whether the combination of Compound 2 and ruxolitinib induces apoptosis in UKE-1 cells harboring a JAK2V617F mutation. […] Cell apoptosis was determined by Annexin V staining and flow cytometry.

SMILES: COCOC[C@H]1C[C@H]2COc3c(Sc4cnc(N5CCC6(CC5)CO[C@@H](C)[C@H]6N)c(CO)n4)ccnc3N2C1 [Compound 2, (3-((3S,4S)-4-amino-3-methyl-2-oxa-8-azaspiro[4.5]decan-8-yl)-6-(((6aS,8S)-8-((methoxymethoxy)methyl)-6a,7,8,9-tetrahydro-6H-pyrido[3,2-b]pyrrolo[1,2-d][1,4]oxazin-4-yl)thio)pyrazin-2-yl)methanol]
- spleen size/weight [1]: significantly reduced
- cell apoptosis [2]: induced apoptosis
